The source of these data is ChEMBL document CHEMBL4417631, “Oral peptide inhibitors of interleukin-23 receptor and their use to treat inflammatory bowel diseases” (2017).

SMILES strings stand for the structures.

The target of data set [1] is T1, Interleukin-23 receptor (Homo sapiens, UniProt Q5VWK5).
T1 sequence (Q5VWK5 whole entry): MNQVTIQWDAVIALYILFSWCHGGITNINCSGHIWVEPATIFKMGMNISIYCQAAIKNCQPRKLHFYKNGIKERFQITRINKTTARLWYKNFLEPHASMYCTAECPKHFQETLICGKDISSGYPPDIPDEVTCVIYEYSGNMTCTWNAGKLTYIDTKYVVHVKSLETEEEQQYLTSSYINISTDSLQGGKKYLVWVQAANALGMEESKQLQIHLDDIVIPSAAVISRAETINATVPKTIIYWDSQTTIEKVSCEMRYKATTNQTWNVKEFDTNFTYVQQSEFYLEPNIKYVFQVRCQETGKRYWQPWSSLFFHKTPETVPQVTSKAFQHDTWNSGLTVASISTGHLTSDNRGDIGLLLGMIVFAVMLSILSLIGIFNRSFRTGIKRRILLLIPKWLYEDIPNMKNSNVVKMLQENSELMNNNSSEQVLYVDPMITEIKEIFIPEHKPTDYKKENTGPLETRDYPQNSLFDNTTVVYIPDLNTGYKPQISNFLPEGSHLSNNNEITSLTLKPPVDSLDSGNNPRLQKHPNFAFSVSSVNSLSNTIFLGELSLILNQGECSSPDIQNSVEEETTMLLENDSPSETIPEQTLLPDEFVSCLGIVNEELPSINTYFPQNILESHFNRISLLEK
The data set can be described thus: Inhibition of interleukin-23 receptor in human DB cells assessed as reduction in IL-23-stimulated STAT3 phosphorylation incubated for 30 mins by HTRF assay. In kind it is cell-based. In general terms: In TR-FRET formats the signal depends on donor and acceptor labels being close together.

Data set [2] is described as follows: Half life in simulated gastric fluid at 20 uM by LC-MS/MS analysis. In kind it is ADME.
Data set [3] in a line: Half life in simulated intestinal fluid at 20 uM by LC-MS/MS analysis. In kind it is ADME.
Data set [4] concerns the target T1, Interleukin-23 receptor. Nature of the data set: Inhibition of interleukin-23 binding to human interleukin-23 receptor incubated for 2 hrs by competitive binding ELISA. (ELISA stands for enzyme-linked immunosorbent assay.)

Broadly, the IC50 is the midpoint of a concentration-inhibition curve. The term half-life denotes the time needed for the level to fall by half in the phase considered. Read a high half-life as slow loss.

In the case of `CC(=O)N[C@H](C(=O)N[C@@H](CC(N)=O)C(=O)N[C@H](C(=O)N[C@@H](Cc1c[nH]c2ccccc12)C(=O)N[C@@H](CCC(N)=O)C(=O)N[C@H](C(=O)N[C@@H](Cc1ccc(OCCN)cc1)C(=O)N[C@@H](Cc1ccc2ccccc2c1)C(=O)N[C@@H](CCC(C)C)C(=O)N[C@@H](CCC(=O)O)C(=O)N[C@@H](CC(N)=O)C(=O)N[C@@H](C)C(N)=O)C(C)(C)S)[C@@H](C)O)C(C)(C)S`, the IC50 at Interleukin-23 receptor [1] was under 0.01 µM. Besides, the half-life at 20 µM in data set [2] is under 1 h; in data set [3] it was 1 to 2 h.
Regarding `CC[C@H](NC(=O)[C@H](CC(N)=O)NC(=O)[C@H](CCCCNC(C)=O)NC(=O)C(C)(C)NC(=O)[C@H](Cc1ccc2ccccc2c1)NC(=O)[C@H](Cc1ccc(OC)cc1)NC(=O)[C@@H](NC(=O)[C@H](CCC(N)=O)NC(=O)[C@H](Cc1c[nH]c2ccccc12)NC(=O)[C@@H](NC(=O)[C@H](CC(N)=O)NC(=O)[C@@H](NC(C)=O)C(C)(C)S)[C@@H](C)O)C(C)(C)S)C(N)=O`, on Interleukin-23 receptor [1], the IC50 is under 0.01 µM. In addition, the half-life at 20 µM in data set [2] is over 6 h; in data set [3], 3 to 6 h.
On Interleukin-23 receptor [4], `COc1ccc(C[C@H](NC(=O)[C@@H]2CSCC[C@H](NC(C)=O)C(=O)N[C@@H](CCC(N)=O)C(=O)N[C@@H]([C@@H](C)O)C(=O)N[C@@H](Cc3c[nH]c4ccccc34)C(=O)N[C@@H](CCC(N)=O)C(=O)N2)C(=O)N[C@@H](Cc2ccc3ccccc3c2)C(=O)N[C@H](C(=O)N[C@@H](CCCCNC(C)=O)C(=O)N[C@@H](CC(N)=O)C(=O)NCC(N)=O)C2CCCCC2)cc1` displayed an IC50 of 0.025 to 0.1 µM. Moreover, the half-life at 20 µM in data set [2] is 3 to 6 h; in data set [3], 2 to 6 h.
In turn, `CC(=O)NCCCC[C@](C)(NC(=O)[C@H](Cc1ccc2ccccc2c1)NC(=O)[C@H](Cc1ccc(OCCNC(C)=O)cc1)NC(=O)[C@@H](NC(=O)[C@H](CCC(N)=O)NC(=O)[C@H](Cc1c[nH]c2ccccc12)NC(=O)[C@@H](NC(=O)[C@](C)(CCCNC(C)=O)NC(=O)[C@@H](NC(C)=O)C(C)(C)S)[C@@H](C)O)C(C)(C)S)C(=O)N[C@@H](CCC(=O)O)C(=O)N[C@@H](CC(N)=O)C(=O)NCC(N)=O` came in with an IC50 at Interleukin-23 receptor [4] of 0.1 to 1 µM. Also, the half-life at 20 µM in data set [2] is 3 to 6 h; in data set [3] it was 1 to 2 h.
With `COc1ccc(C[C@H](NC(=O)[C@@H](NC(=O)[C@H](CCC(N)=O)NC(=O)[C@H](Cc2c[nH]c3ccccc23)NC(=O)[C@@H](NC(=O)[C@H](CC(N)=O)NC(=O)[C@@H](NC(C)=O)C(C)(C)S)[C@@H](C)O)C(C)(C)S)C(=O)N[C@@H](Cc2ccc3ccccc3c2)C(=O)NC2(C(=O)N[C@@H](CCCCNC(C)=O)C(=O)N[C@@H](CC(N)=O)C(=O)N[C@@H](CC(N)=O)C(N)=O)CCOCC2)cc1`, the half-life at 20 µM in data set [2] and in data set [3] was over 6 h each time.
As to `COc1ccc(C[C@H](NC(=O)[C@@H](NC(=O)[C@H](CCC(N)=O)NC(=O)[C@H](Cc2c[nH]c3ccccc23)NC(=O)[C@@H](NC(=O)[C@H](CC(N)=O)NC(=O)[C@@H](NC(C)=O)C(C)(C)S)[C@@H](C)O)C(C)(C)S)C(=O)N[C@@H](Cc2ccc3ccccc3c2)C(=O)NC2(C(=O)N[C@@H](CCCCNC(C)=O)C(=O)N[C@@H](CC(N)=O)C(=O)N[C@@H](CC(N)=O)C(N)=O)CCCCC2)cc1`, the half-life at 20 µM in data set [2] was over 6 h; in data set [3] it was 3 to 6 h.
With `CC(=O)N[C@@H](Cc1ccccc1)C(=O)N[C@H]1CCSC[C@@H](C(=O)N[C@@H](Cc2ccc(OCCN)cc2)C(=O)N[C@@H](Cc2ccc3ccccc3c2)C(=O)N[C@@](C)(CCCCN)C(=O)N[C@@H](CCC(=O)O)C(=O)N[C@@H](CC(N)=O)C(=O)N[C@@H](CC(N)=O)C(N)=O)NC(=O)[C@H](CCC(N)=O)NC(=O)[C@H](Cc2c[nH]c3ccccc23)NC(=O)[C@H]([C@@H](C)O)NC(=O)[C@H](CCC(N)=O)NC1=O`, the half-life at 20 µM in data set [2] is 2 to 3 h; in data set [3] it was 1 to 2 h.
